Results taken from patent US5707615A, “Method of treating HIV infections with anti-viral formulations” (Merrell Pharmaceuticals Inc., priority 1997, dated 1998).
Several values for one entry are separate records, joined by “and”; a condition that tells them apart may be missing. Identical values can stand only once.

Experiments:
[1] = tested on: HIV-I, GB8; experiment: Ability to prevent syncytia formation and expression of P24 viral core antigen using JM cells and GB8 virus strain (Example I); assay type: cell-based; conditions: for P24 % CONTROL: 4320 min; for SYNCYTIA: after 3 days
Procedure: The virus was first incubated with an oligomer for 15 minutes and then the cells were added. After 2 hours adsorption, the virus innoculum was removed and the cells were washed three times to remove traces of input virus. Antiviral activity was determined after 3 days incubation by plotting the mean number of syncytia found in quadruple cultures against log10 concentration of anionic polymer or of other test compounds. The potency of an oligomer was also measured by assaying viral core antigen (P24 test-Abbott) in the supernatant fluid. Heparin, dextran sulfate, rs CD4, ATZ and/or ddC data, when included in any of the following Tables, are provided as positive controls.

[2] = tested on: HIV strain RF; experiment: Ability to prevent virus-induced cell death using MT4 cells and strain RF (Example III); assay type: cell-based; conditions: MT4 cells, 7 days, MTT, 10080 min
Procedure: (§1) Various oligomers were dissolved in RPMI and were then assayed for anti-HIV activity by making doubling dilutions of the solutions across a 96 well microtitre plate. To each well were then added 5×10^4 cells and 100 TCID50 of virus and the plates incubated at 37° C. for 7 days. MTT was added to each well and the plates incubated for a further 2 hours. The blue formazan crystals were dissolved using acidic isopropanol, and the absorbance measured at 540 nm.

[3] = tested on: MT4 cells; experiment: Toxicity to MT4 cells (TD50, Table IV, MTT); assay type: cell-based; conditions: MT4 cells, 7 days, MTT
Procedure: as §1

[4] = tested on: HIV-I (GB8); experiment: Pretreatment of JM cells and block of HIV-I (GB8) infection (Example IV); conditions: pretreated overnight at 20 μg/mL; for MEAN SYNCYTIA: 2 days; for P24 % / SYNCYTIA %: % of control, 2880 min
[5] = tested on: GB8 virus in JM cells; experiment: Virus infection of JM cells with GB8 in the presence of test compounds: syncytia and P24 (Example II); conditions: Table II; for SYNCYTIA % / P24 %: % of control; for SYNCYTIA %: 2880 min; for P24 %: 5760 min
Procedure: Virus infection of JM cells was carried out in the presence of different concentrations of test compounds. JM cells (1×10^5) and 50-100 syncytial forming units of virus (GB8) were added to duplicate wells of a tissue culture plate containing 1 mL volumes of growth medium with or without drug. The plate was incubated for 2 days at 37° C. and then scored for the presence of syncytia. At the same time the cells were washed and the growth medium replaced. After a further two days incubation, the cell free supernatant fluids were harvested and assayed for levels of P24 viral core antigen using the Coulter™ HIV Antigen assay.

[6] = tested on: HIV-I (GB8); experiment: Effect of treating HIV-I (GB8)-infected cells (JM) 24 hours post-infection (Example V, Table VI); assay type: cell-based; conditions: for P24 % CONTROL: 8640 min
[7] = tested on: HIV-I (GB8); experiment: Effect of treating HIV-I (GB8)-infected cells (JM) 48 hours post-infection (Example V, Table VIII); assay type: cell-based; conditions: for P24 / P24 % CONTROL: day 6 p.i.
[8] = tested on: HIV-I (RF); experiment: Effect of treating HIV-I (RF)-infected cells (C8166) 24 hours post-infection (Example V, Table VII); conditions: for P24 % CONTROL: 8640 min
Procedure: Cells were infected with strain RF or GB8 for 24 hours at 37° C. at a multiplicity of infection of 0.001. Cells were washed three times to remove residual virus and then replated into fresh growth medium. Cells were then treated for 24 and 48 hours post-infection (p.i.) with the indicated concentrations of test compounds. Syncytia and P24 antigen levels were determined on the indicated days p.i. by methods described before.

[9] = tested on: HIV; conditions: cited from earlier work
[10] = 0.31 μM, addition 24 hours p.i.
[11] = 0.62 μM, addition 24 hours p.i.
[12] = 1.2 μM, addition 0 hours p.i., single wells
[13] = 1.25 μM, addition 24 hours p.i.

poly{imino[2,2'-disulfo(1,1'-biphenyl)-4,4'-diyl]iminocarbonyl}, alpha-{[(4-methylphenyl)amino]carbonyl}-omega[(4-methylphenyl)amino]- [Example 1B]
P24 ([1]; 0.6 μg/mL): 32820 pg/mL | P24 % CONTROL ([1]; 0.6 μg/mL): 0.1% | P24 ([1]; 1.25 μg/mL): 35890 pg/mL | P24 % CONTROL ([1]; 1.25 μg/mL): < 0.1% | P24 ([1]; 2.5 μg/mL): 365 pg/mL | P24 % CONTROL ([1]; 2.5 μg/mL): < 0.1% | SYNCYTIA ([1]; 2.5 μg/mL): 0 | P24 ([1]; 5.0 μg/mL): 465 pg/mL | P24 % CONTROL ([1]; 5.0 μg/mL): < 0.1% | SYNCYTIA ([1]; 5.0 μg/mL): 0 | ED50 [2]: 2.2 µg/mL | TD50 [3]: > 100 µg/mL | P24 [4]: 2790 pg/mL | MEAN SYNCYTIA [4]: 52 | P24 % [4]: 10% | SYNCYTIA % [4]: 44% | SYNCYTIA (2 DAYS) MEAN ([5]; 0.01 μg/mL): 47 | SYNCYTIA % ([5]; 0.01 μg/mL): 112% | P24 ([5]; 0.03 μg/mL): 4.1 × 10^5 units/mL | SYNCYTIA (2 DAYS) MEAN ([5]; 0.03 μg/mL): 42 | SYNCYTIA % ([5]; 0.03 μg/mL): 100% | P24 % ([5]; 0.03 μg/mL): 100% | P24 ([5]; 0.1 μg/mL): 4.4 × 10^5 units/mL | SYNCYTIA (2 DAYS) MEAN ([5]; 0.1 μg/mL): 25 | SYNCYTIA % ([5]; 0.1 μg/mL): 58% | P24 % ([5]; 0.1 μg/mL): 100% | P24 ([5]; 0.3 μg/mL): 3.8 × 10^4 units/mL | SYNCYTIA (2 DAYS) MEAN ([5]; 0.3 μg/mL): 1 | SYNCYTIA % ([5]; 0.3 μg/mL): 2% | P24 % ([5]; 0.3 μg/mL): 11% | P24 ([5]; 1 μg/mL): 1.6 × 10^3 units/mL | SYNCYTIA (2 DAYS) MEAN ([5]; 1 μg/mL): 0 | SYNCYTIA % ([5]; 1 μg/mL): 0% | P24 % ([5]; 1 μg/mL): 0.4% | SYNCYTIA (2 DAYS) MEAN ([5]; 3 μg/mL): 0 | SYNCYTIA % ([5]; 3 μg/mL): 0% | SYNCYTIA (2 DAYS) MEAN ([5]; 10 μg/mL): 0 | SYNCYTIA % ([5]; 10 μg/mL): 0%

poly{imino[2,2'-disulfo(1,1'-biphenyl)-4,4'-diyl]iminocarbonyl}, alpha-{[(4-methylphenyl)amino]carbonyl}-omega[(4-methylphenyl)amino]- [Example 1A]
P24 ([1]; 0.6 μg/mL): 37355 pg/mL | P24 % CONTROL ([1]; 0.6 μg/mL): 0.13% | P24 ([1]; 1.25 μg/mL): 541 pg/mL | P24 % CONTROL ([1]; 1.25 μg/mL): < 0.1% | SYNCYTIA ([1]; 1.25 μg/mL): 0 | P24 ([1]; 2.5 μg/mL): 96 pg/mL | P24 % CONTROL ([1]; 2.5 μg/mL): < 0.1% | SYNCYTIA ([1]; 2.5 μg/mL): 0 | SYNCYTIA ([1]; 5.0 μg/mL): 0 | ED50 [2]: 1.6 µg/mL | TD50 [3]: > 100 µg/mL | P24 DAY 6 p.i. [6, 10]: 165000 pg/mL | SYNCYTIA/WELL DAY 3 p.i. [6, 10]: > 50 SYNCYTIA/WELL | P24 % CONTROL [6, 10]: 16.0% | P24 DAY 6 p.i. [6, 11]: 56000 pg/mL | SYNCYTIA/WELL DAY 3 p.i. [6, 11]: < 20 SYNCYTIA/WELL | P24 % CONTROL [6, 11]: 5.4% | P24 DAY 6 p.i. ([6]; 1.2 μM, addition 24 hours p.i.): 15000 pg/mL | SYNCYTIA/WELL DAY 3 p.i. ([6]; 1.2 μM, addition 24 hours p.i.): < 10 SYNCYTIA/WELL | P24 % CONTROL ([6]; 1.2 μM, addition 24 hours p.i.): 1.5% | P24 DAY 6 p.i. ([6]; 2.5 μM, addition 0 hours p.i.): 420 pg/mL | SYNCYTIA/WELL DAY 3 p.i. ([6]; 2.5 μM, addition 0 hours p.i.): 0 SYNCYTIA/WELL | P24 % CONTROL ([6]; 2.5 μM, addition 0 hours p.i.): 0.04% | P24 DAY 6 p.i. ([6]; 2.5 μM, addition 24 hours p.i.): 12100 pg/mL | SYNCYTIA/WELL DAY 3 p.i. ([6]; 2.5 μM, addition 24 hours p.i.): 0 SYNCYTIA/WELL | P24 % CONTROL ([6]; 2.5 μM, addition 24 hours p.i.): 1.2% | P24 ([7]; 1.2 μM, addition 0 hours p.i.): 450 pg/mL | P24 % CONTROL ([7]; 1.2 μM, addition 0 hours p.i.): 0.41% | SYNCYTIA/WELL DAY 3 p.i. [7, 12]: 0 SYNCYTIA/WELL | SYNCYTIA/WELL DAY 6 p.i. [7, 12]: 0 SYNCYTIA/WELL | P24 ([7]; 1.2 μM, addition 48 hours p.i.): 21000 pg/mL | P24 % CONTROL ([7]; 1.2 μM, addition 48 hours p.i.): 19.0% | SYNCYTIA/WELL DAY 3 p.i. ([7]; 1.2 μM, addition 48 hours p.i., single wells): 19 SYNCYTIA/WELL and 10 SYNCYTIA/WELL and 12 SYNCYTIA/WELL | effect on cells having preestablished infections ([7]; summary of studies): cleared cultures of syncytia, stabilized the infection and reduced virus antigen levels | P24 [4]: 2623 pg/mL | MEAN SYNCYTIA [4]: 14 | P24 % [4]: 9% | SYNCYTIA % [4]: 12% | P24 DAY 6 p.i. [8, 11]: 700000 pg/mL | P24 % CONTROL [8, 11]: 74% | P24 DAY 6 p.i. [8, 13]: 1.5e+06 pg/mL | SYNCYTIA/WELL DAY 2 [8, 13]: 0 | P24 % CONTROL [8, 13]: 100% | SYNCYTIA/WELL DAY 2 ([8]; 2.5 μM, addition 24 hours p.i.): 0 | SYNCYTIA/WELL DAY 3 ([8]; 2.5 μM, addition 24 hours p.i.): 0 | P24 % CONTROL ([8]; 2.5 μM, addition 24 hours p.i.): 10.2% | P24 DAY 6 p.i. ([8]; 5 μM, addition 24 hours p.i.): 9300 pg/mL | SYNCYTIA/WELL DAY 2 ([8]; 5 μM, addition 24 hours p.i.): 0 | SYNCYTIA/WELL DAY 3 ([8]; 5 μM, addition 24 hours p.i.): 0 | P24 % CONTROL ([8]; 5 μM, addition 24 hours p.i.): 1.0% | P24 DAY 6 p.i. ([8]; 10 μM, addition 0 hours p.i.): 16000 pg/mL | SYNCYTIA/WELL DAY 2 ([8]; 10 μM, addition 0 hours p.i.): 0 | SYNCYTIA/WELL DAY 3 ([8]; 10 μM, addition 0 hours p.i.): 0 | P24 % CONTROL ([8]; 10 μM, addition 0 hours p.i.): 1.7% | P24 DAY 6 p.i. ([8]; 10 μM, addition 24 hours p.i.): 9200 pg/mL | SYNCYTIA/WELL DAY 2 ([8]; 10 μM, addition 24 hours p.i.): 0 | SYNCYTIA/WELL DAY 3 ([8]; 10 μM, addition 24 hours p.i.): 0 | P24 % CONTROL ([8]; 10 μM, addition 24 hours p.i.): 1.0% | SYNCYTIA (2 DAYS) MEAN ([5]; 0.01 μg/mL): 60 | SYNCYTIA % ([5]; 0.01 μg/mL): 143% | P24 ([5]; 0.03 μg/mL): 4.3 × 10^5 units/mL | SYNCYTIA (2 DAYS) MEAN ([5]; 0.03 μg/mL): 52 | SYNCYTIA % ([5]; 0.03 μg/mL): 123% | P24 % ([5]; 0.03 μg/mL): 100% | P24 ([5]; 0.1 μg/mL): 4.0 × 10^5 units/mL | SYNCYTIA (2 DAYS) MEAN ([5]; 0.1 μg/mL): 25 | SYNCYTIA % ([5]; 0.1 μg/mL): 58% | P24 % ([5]; 0.1 μg/mL): 100% | P24 ([5]; 0.3 μg/mL): 4.0 × 10^4 units/mL | SYNCYTIA (2 DAYS) MEAN ([5]; 0.3 μg/mL): 14 | SYNCYTIA % ([5]; 0.3 μg/mL): 33% | P24 % ([5]; 0.3 μg/mL): 11% | P24 ([5]; 1 μg/mL): 9.1 × 10^3 units/mL | SYNCYTIA (2 DAYS) MEAN ([5]; 1 μg/mL): 0 | SYNCYTIA % ([5]; 1 μg/mL): 0% | P24 % ([5]; 1 μg/mL): 3% | SYNCYTIA (2 DAYS) MEAN ([5]; 3 μg/mL): 0 | SYNCYTIA % ([5]; 3 μg/mL): 0% | SYNCYTIA (2 DAYS) MEAN ([5]; 10 μg/mL): 0 | SYNCYTIA % ([5]; 10 μg/mL): 0%

CCC(O)[C@H](N)C(=O)O (stereo partly drawn) [β-hydroxy-norvaline]
expression of HIV glycoproteins and formation of syncytia [9]: inhibit expression of HIV glycoproteins and block the formation of syncytia
